From patent US9296787B2, “Antitumor peptide and use thereof” (priority 2011, dated 2016)
Like-named read-outs stand apart in the source and are kept apart here. Positions of bridges follow the written chain, without caps; N, C: chain ends. Residues, ends and D or L forms follow the SMILES beside them. No end group written: not given here.

Columns and labels:
Assay type in all cases: cell-based
[1] = system: human alveolar basal epithelial adenocarcinoma cells, A549; conditions: for antitumor activity (tumor cell proliferation-inhibiting activity), in words: A549, 50 μM, 24 hours, summary of Table 5; for A450(-A620) After 24 hers: A549, peptide 50 μM, WST-8 absorbance after 24 hours
Procedure: (§1) As the tumor cells tested, a commercial mouse neuroblastoma cell line (N1E-115) was used. The cell line was cultured beforehand in a DMEM medium (i.e. Dulbecco MEM medium (DMEM medium, a Gibco product) containing 10% fetal bovine serum (FBS, a Gibco product), 2 mM of L-glutamine, 50 unit/mL of penicillin, and 50 μg/mL of streptomycin), and the number of cells per well in a 96-well plate was adjusted to approximately 5×10^3. The volume of the medium for this was 100 μL per well.
(§2) Subsequently, the stock solution of each sample peptide shown in Table 3 was added to each well to a peptide concentration in the well of 50 μM or 100 μM.
(§3) After the sample peptides were added as described above, the 96-well plate was placed in a CO2 incubator and cultured without agitation at 37° C. under 5% CO2. At the time of the peptide addition (at the start of treatment) and at 6 hours or 24 hours from the peptide addition and the start of incubation, the viability status of the cultured cells tested was analyzed with a commercial colorimetric assay kit. In particular, to each cell-culturing well, “water-soluble tetrazolium salt (WST-8)” was added as a colorimetric reagent; after two hours of incubation following the addition, the cell culture medium supplied with the colorimetric reagent was collected; and the level of inhibition of cell proliferation was evaluated by colorimetry, measuring the absorbance at a wavelength of 450 nm (values corrected with the absorbance at a wavelength of 620 nm, A450-A620) based on reduction of tetrazolium salt. Based on the absorbance at the time of the sample peptide addition (at the start of treatment), the percent decrease in the absorbance after 6 hours or 24 hours was determined as the cell proliferation inhibition rate (%).
Cells forming a […] (human alveolar basal epithelial adenocarcinoma cells, A549) were substituted for the tumor cells tested and the same test as Example 2 described above was carried out. In the present example, the peptides of Samples 1 to 13, 15 to 22, 24, 29, 35 and 40 were used.

[2] = system: HeLa cells (HeLa S3); conditions: WST-8 absorbance after 24 hours
Procedure: as §1, §2, §3
HeLa cells (HeLa S3) were substituted for the tumor cells tested and the same test as Example 2 described above was carried out. In the present example, the peptides of Samples 1 to 7, 9, 10, 13, 16, 21 and 35 were used.

[3] = system: HeLa cells; assay: Multipolar spindle formation, DAPI and anti-tubulin immunofluorescence microscopy; conditions: peptide 100 μM, after 24 hours
Procedure: In addition, the cultured cells supplemented with the peptides were observed under fluorescence microscope. Herein, as for some examples, the observations on Samples 1, 9, 13, 16, 21 and 35 are outlined. In particular, each peptide was added to a peptide concentration in a well of 50 μM (Samples 1, 9) or 100 μM (Samples 13, 16, 21, 35). After 24 hours, the cultured cells were subjected to nuclear staining with DAPI (4′,6-diamidino-2-phenylindole) and observed under fluorescence microscope. As a marker for spindles, α-tubulin was used; and the cells were tested for the presence of tubulin (i.e. the presence of spindles) by immunofluorescence, using a fluorescence-labeled anti-tubulin antibody to identify the tubulin. FIGS. 1 to 6 show merged images of DAPI-stained images and fluorescence images showing the results of the immunofluorescence assays using the fluorescence-labeled anti-tubulin antibody.

[4] = system: mouse neuroblastoma cell line (N1E-115); conditions: for A450(-A620) After 24 hers: WST-8 absorbance after 24 hours; for A450(-A620) After 6 hers: WST-8 absorbance after 6 hours
Procedure: Some of the sample peptides obtained in Example 1 were tested for antitumor activity against target cultured tumor cells. Details of the assay are as described below.
as §1, §2, §3

Compound	antitumor activity (tumor cell proliferation-inhibiting activity), in words [1]	A450(-A620) After 24 hers [1]	A450(-A620) After 24 hers ([2]; HeLa S3, peptide 50 μM)	A450(-A620) After 24 hers ([2]; HeLa S3, peptide 100 μM)	formation of multipolar spindles (presence of many multipolar cells) [3]	A450(-A620) After 24 hers ([4]; N1E-115, peptide 50 μM)	A450(-A620) After 24 hers ([4]; N1E-115, peptide 100 μM)	A450(-A620) After 6 hers ([4]; N1E-115, peptide 50 μM)	A450(-A620) After 6 hers ([4]; N1E-115, peptide 100 μM)	antitumor activity (tumor cell proliferation-inhibiting activity), in words ([4]; N1E-115, 50 or 100 μM, summary of Table 3)
CSCC[C@@H]1NC(=O)[C@H](CCCCN)NC(=O)[C@H]([C@@H](C)O)NC(=O)[C@H](CCC(N)=O)NC(=O)CNC(=O)[C@H](CC(C)C)NC(=O)[C@@H](N)CSSC[C@@H](C(=O)O)NC(=O)[C@H](CCCNC(=N)N)NC1=O [Sample 3, CLGQTKMRC] (H-CLGQTKMRC-OH; disulfide 1-9; N-terminus and C-terminus assumed)	high antitumor activity	1.7022	0.1194	0.0997	–	–	–	–	–	–
SVSVGMKPSPRPKKRTLRKNDRKKR [Sample 35]	high antitumor activity	1.7451	–	–	formation of multipolar spindles	–	–	–	–	–
N=C(N)NCCC[C@@H]1NC(=O)[C@H](Cc2c[nH]cn2)NC(=O)CNC(=O)[C@@H](N)CSSC[C@@H](C(=O)O)NC(=O)[C@H](Cc2ccc(O)cc2)NC(=O)[C@H](CCC(N)=O)NC(=O)[C@H](Cc2ccc(O)cc2)NC(=O)[C@@H]2CCCN2C1=O [Sample 4, CGHRPYQYC] (H-CGHRPYQYC-OH; disulfide 1-9; N-terminus and C-terminus assumed)	–	1.7663	0.0955	0.0937	–	–	–	–	–	–
NMTTYPMHNNTV [Sample 18, NMTTYPMHNNTV]	–	1.6767	–	–	–	0.6054	0.5999	–	–	–
QSPVNHHYHYHI [Sample 17, QSPVNHHYHYHI]	–	1.9428	–	–	–	0.6019	0.5818	–	–	–
CC(C)C[C@@H]1NC(=O)[C@H]([C@@H](C)O)NC(=O)[C@@H](N)CSSC[C@@H](C(=O)O)NC(=O)[C@H](CC(N)=O)NC(=O)[C@H](CO)NC(=O)[C@H](Cc2c[nH]cn2)NC(=O)[C@H](CO)NC(=O)[C@H](CC(N)=O)NC1=O [Sample 6, CTLNSHSNC] (H-CTLNSHSNC-OH; disulfide 1-9; N-terminus and C-terminus assumed)	high antitumor activity	1.4667	0.1174	0.0906	–	0.3083	0.2830	0.1633	0.1345	–
GPHLGMNQRRRP [Sample 21, GPHLGMNQRRRP]	high antitumor activity	1.5672	–	–	formation of multipolar spindles	0.5284	0.5810	–	–	–
CC[C@H](C)[C@@H]1NC(=O)[C@H](CCC(=O)O)NC(=O)[C@@H](N)CSSC[C@@H](C(=O)O)NC(=O)[C@H]([C@@H](C)O)NC(=O)[C@H](CCCNC(=N)N)NC(=O)[C@H](CCCCN)NC(=O)[C@H](C)NC(=O)[C@H](CO)NC1=O [Sample 7, CEISAKRTC] (H-CEISAKRTC-OH; disulfide 1-9; N-terminus and C-terminus assumed)	–	1.6822	0.1508	0.1081	–	–	–	–	–	–
CC[C@H](C)[C@@H]1NC(=O)[C@H](CCC(=O)O)NC(=O)[C@@H](N)CSSC[C@@H](C(=O)N[C@@H](CCCCN)C(=O)N[C@@H](CCCCN)C(=O)N[C@@H](CCCNC(=N)N)C(=O)N[C@H](C(=O)N[C@@H](CC(C)C)C(=O)N[C@@H](CCCNC(=N)N)C(=O)N[C@@H](CCCCN)C(=O)N[C@@H](CC(N)=O)C(=O)N[C@@H](CC(=O)O)C(=O)N[C@@H](CCCNC(=N)N)C(=O)N[C@@H](CCCCN)C(=O)N[C@@H](CCCCN)C(=O)N[C@@H](CCCNC(=N)N)C(=O)O)[C@@H](C)O)NC(=O)[C@H]([C@@H](C)O)NC(=O)[C@H](CCCNC(=N)N)NC(=O)[C@H](CCCCN)NC(=O)[C@H](C)NC(=O)[C@H](CO)NC1=O [Sample 29] (H-CEISAKRTCKKRTLRKNDRKKR-OH; disulfide 1-9; N-terminus and C-terminus assumed)	high antitumor activity	1.6577	–	–	–	–	–	–	–	–
C[C@@H]1NC(=O)[C@H](Cc2c[nH]c3ccccc23)NC(=O)[C@H](Cc2c[nH]cn2)NC(=O)CNC(=O)[C@H]([C@@H](C)O)NC(=O)[C@@H](N)CSSC[C@@H](C(=O)O)NC(=O)[C@H](CCC(=O)O)NC(=O)[C@H](CO)NC1=O [Sample 10, CTGHWASEC] (H-CTGHWASEC-OH; disulfide 1-9; N-terminus and C-terminus assumed)	–	1.7472	0.0909	0.0915	–	–	–	–	–	–
SVSVGMKPSPRP [Sample 13, SVSVGMKPSPRP]	–	1.9412	–	–	formation of multipolar spindles	0.5681	0.6422	–	–	–
GAVTYSRISGQY [Sample 22, GAVTYSRISGQY]	–	1.9711	–	–	–	–	–	–	–	–
CC(C)C[C@H](NC(=O)[C@@H](NC(=O)[C@H](CCCNC(=N)N)NC(=O)[C@H](CCCCN)NC(=O)[C@H](CCCCN)NC(=O)[C@@H]1CSSC[C@H](N)C(=O)N[C@@H](CC(C)C)C(=O)N[C@@H](C)C(=O)N2CCC[C@H]2C(=O)N[C@@H](CO)C(=O)N2CCC[C@H]2C(=O)N[C@@H](CO)C(=O)N[C@@H](CCCCN)C(=O)N1)[C@@H](C)O)C(=O)N[C@@H](CCCNC(=N)N)C(=O)N[C@@H](CCCCN)C(=O)N[C@@H](CC(N)=O)C(=O)N[C@@H](CC(=O)O)C(=O)N[C@@H](CCCNC(=N)N)C(=O)N[C@@H](CCCCN)C(=O)N[C@@H](CCCCN)C(=O)N[C@@H](CCCNC(=N)N)C(=O)O [Sample 24] (H-CLAPSPSKCKKRTLRKNDRKKR-OH; disulfide 1-9; N-terminus and C-terminus assumed)	high antitumor activity	1.5820	–	–	–	0.3492	0.3198	–	–	high antitumor activity
NMTTYPMHNNTVKKRTLRKNDRKKR [Sample 40]	high antitumor activity	1.5890	–	–	–	–	–	–	–	–
CC(C)C[C@@H]1NC(=O)[C@@H]2CCCN2C(=O)[C@H](Cc2ccccc2)NC(=O)[C@H](C)NC(=O)[C@H](Cc2c[nH]c3ccccc23)NC(=O)[C@@H](N)CSSC[C@@H](C(=O)O)NC(=O)[C@H](Cc2c[nH]cn2)NC(=O)[C@H](Cc2c[nH]cn2)NC1=O [Sample 5, CWAFPLHHC] (H-CWAFPLHHC-OH; disulfide 1-9; N-terminus and C-terminus assumed)	–	1.8994	0.0955	0.0952	–	–	–	–	–	–
TPSLPPTMFRLT [Sample 15, TPSLPPTMFRLT]	–	1.6022	–	–	–	–	–	–	–	–
EFEYFHPATFRL [Sample 20, EFEYFHPATFRL]	–	1.8115	–	–	–	0.5772	0.6481	–	–	–
CC(C)C[C@@H]1NC(=O)[C@@H](N)CSSC[C@@H](C(=O)O)NC(=O)[C@H](CCCCN)NC(=O)[C@H](CO)NC(=O)[C@@H]2CCCN2C(=O)[C@H](CO)NC(=O)[C@@H]2CCCN2C(=O)[C@H](C)NC1=O [Sample 2, CLAPSPSKC] (H-CLAPSPSKC-OH; disulfide 1-9; N-terminus and C-terminus assumed)	–	1.8971	0.0924	0.0739	–	0.3926	0.3764	0.2235	0.2094	–
